Four molecules from patent US10144690B2, “1,2-diphenylethylene glycol compounds for combating aging of the skin, and cosmetic use thereof” (L'OREAL, priority 2014, dated 2018) can be followed below.

This test deals with phospho-AMPK (Thr-172) (p-AMPK). Description: p-AMPK expression by Western blotting in normal human epidermal keratinocytes (p-AMPK/GAPDH ratio relative to control). Type of test: cell-based. To be noted: 12 hours incubation. The procedure: Normal human epidermal keratinocytes are seeded at 180 000 cells per well and cultured in SFM culture medium (supplier Gibco) supplemented with 0.25 ng/ml EGF, 25 μg/ml of pituitary extract and 25 μg/ml gentamicin, up to confluence, and incubated in a humid oven at 37° C. and 5% CO2. The culture medium was then replaced with test medium (SFM (Gibco) supplemented with 25 μg/ml gentamicin) containing or not containing (control) the test compounds, the combinations or the reference (AICAR—(5-amino-4-imidazolecarboxamide riboside) at 500 μM). The cells were then incubated for 12 hours.
The level of expression of p-AMPK was analyzed by Western blotting.
At the end of the incubation, the proteins were extracted and quantified and then separated by electrophoresis on 10% polyacrylamide gel and then transferred onto a nitrocellulose membrane.
Between each successive revelation, the antibodies were detached using a “stripping” buffer. The images were acquired with a Fuji LAS 3000 chemiluminescence scanner (Fujifilm) and the densitometric analyses were performed using the Multigauge software (Fujifilm).
An increase in the phosphorylated form of AMPK (active form of the enzyme) relative to the control is evaluated in this test.
Expressed in the form of the p-AMPK/GAPDH ratio relative to the control (100%): […]

In the case of `COc1ccc(C(O)[C@H](O)c2ccc(OC)cc2)cc1` (stereo partly drawn) [Compound 2], the “p-AMPK/GAPDH ratio relative to the control (100%)” value is, setting by setting: (test compound 1 μM) 94%; (test compound 10 μM) 134%; (test compound 100 μM) 149%.
The matching figures for `Oc1ccc(C(O)C(O)c2cc(O)cc(O)c2)cc1` (stereo not drawn) [Compound 4]: 132%, 140% and 159%.
The matching figures for `COc1cc(C(O)C(O)c2ccc(O)c(OC)c2)ccc1O` (stereo not drawn) [Compound 3]: 112%, 147% and 158%.
Taken in the same sequence, the figures for `COc1ccc([C@@H](O)[C@H](O)c2ccc(OC)cc2)cc1` [Compound 1] were 133%, 171% and 198%.
